What all share (assay): Whole-cell binding assay, competition with 125I-GIP1-42
Holding throughout (set-up): acylated tirzepatide to the full-length or modified; Flag; expressed in transfected cells

Assay [1] deals with T1, GIPR (Homo sapiens, UniProt P48546, W209A).
T1 sequence (P48546 22-466 W209A): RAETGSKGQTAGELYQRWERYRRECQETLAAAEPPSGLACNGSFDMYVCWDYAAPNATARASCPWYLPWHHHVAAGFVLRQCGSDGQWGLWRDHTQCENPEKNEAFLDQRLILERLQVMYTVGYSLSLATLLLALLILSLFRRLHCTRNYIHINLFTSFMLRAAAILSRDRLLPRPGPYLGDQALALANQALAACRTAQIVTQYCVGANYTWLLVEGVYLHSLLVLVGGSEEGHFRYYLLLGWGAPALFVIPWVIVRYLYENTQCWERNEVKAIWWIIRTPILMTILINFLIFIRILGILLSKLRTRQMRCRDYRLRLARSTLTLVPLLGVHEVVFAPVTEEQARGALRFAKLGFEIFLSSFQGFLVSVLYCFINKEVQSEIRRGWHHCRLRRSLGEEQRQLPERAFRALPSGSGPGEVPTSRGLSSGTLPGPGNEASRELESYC
The note with it: GIPR W209A, CHO-K1. In outline:
(§1)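 Transiently transfected CHO-K1 cells expressing WT or mutant GIPR were washed in F-12 with 0.1% BSA or 0.1% casein and 33 mM HEPES, then incubated 2 h at 37 °C. After ice-cold PBS washes, cells were lysed and bound radioactivity counted (CPM).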

For assay [2], the target named is T2, GIPR (Homo sapiens, UniProt P48546, R192A).
T2 sequence (P48546 22-466 R192A): T1 sequence (P48546 22-466 W209A) with R171A, A188W
The note with it: GIPR R192A, CHO-K1. In outline: as §1

Assay [3] addresses T3, GIPR (Homo sapiens, UniProt P48546, F127A).
T3 sequence (P48546 22-466 F127A): T1 sequence (P48546 22-466 W209A) with F106A, A188W
The note with it: GIPR F127A, CHO-K1. In outline: as §1

Setting [4] is: read-out: binding pIC50 (converted).

The structures appear in SMILES notation. Residue numbers refer to the chain shown, from its start.

As to `CCCCCCCCCCCCCCCC(=O)N[C@@H](CCC(=O)NCCCC[C@H](NC(=O)[C@H](CC(=O)O)NC(=O)[C@H](CO)NC(=O)[C@@H](NC(=O)[C@H](Cc1ccccc1)NC(=O)[C@@H](NC(=O)CNC(=O)[C@H](CCC(N)=O)NC(=O)C(C)(C)NC(=O)[C@@H](N)Cc1c[nH]cn1)[C@@H](C)O)[C@@H](C)O)C(=O)N[C@@H](CO)C(=O)N[C@@H](CCCCN)C(=O)N[C@@H](Cc1ccc(O)cc1)C(=O)N[C@@H](CC(C)C)C(=O)N[C@@H](CC(=O)O)C(=O)N[C@@H](CCC(=O)O)C(=O)N[C@@H](CCCNC(=N)N)C(=O)N[C@@H](C)C(=O)N[C@@H](C)C(=O)N[C@@H](CCC(N)=O)C(=O)N[C@@H](CC(=O)O)C(=O)N[C@@H](Cc1ccccc1)C(=O)N[C@H](C(=O)N[C@@H](CCC(N)=O)C(=O)N[C@@H](Cc1c[nH]c2ccccc12)C(=O)N[C@@H](CC(C)C)C(=O)N[C@@H](CC(C)C)C(=O)N[C@@H](CC(=O)O)C(=O)NCC(=O)NCC(=O)N1CCC[C@H]1C(=O)N[C@@H](CO)C(=O)N[C@@H](CO)C(=O)NCC(=O)N[C@@H](C)C(=O)N1CCC[C@H]1C(=O)N1CCC[C@H]1C(=O)N1CCC[C@H]1C(=O)N[C@@H](CO)C(N)=O)C(C)C)C(=O)O` [Peptide 20], the “binding Span” value is reported as 96.83 ± 6.13 % WT at GIPR [1], 71.60 ± 4.11 % WT at GIPR [2] and 85.53 ± 4.36 % WT on GIPR [3]. Moreover, the IC50 is 20 nM at GIPR [1] (setting [4]), 24 nM at GIPR [2] (setting [4]) and 20 nM at GIPR [3] (setting [4]).

Source of the values: paper PMC8881610 (Nature Communications, 2022).
